Reference: paper PMC7400577 (Scientific Reports, 2020)
Like-named read-outs stand apart in the source and are kept apart here.

Experiments:
Format in all cases: cell-based
hBGT1 [1] = molecular target: T1, hBGT1 (Homo sapiens, UniProt P48065); conditions: for IC50: 30 nM [3H]GABA, 3 min, CHO Flp-In cells stably expressing hBGT1; for subtype-selectivity for hBGT1 over the other hGATs: estimated from [3H]GABA uptake IC50 values
T1 construct: expressed in transfected cells
T1 sequence (P48065 1-614): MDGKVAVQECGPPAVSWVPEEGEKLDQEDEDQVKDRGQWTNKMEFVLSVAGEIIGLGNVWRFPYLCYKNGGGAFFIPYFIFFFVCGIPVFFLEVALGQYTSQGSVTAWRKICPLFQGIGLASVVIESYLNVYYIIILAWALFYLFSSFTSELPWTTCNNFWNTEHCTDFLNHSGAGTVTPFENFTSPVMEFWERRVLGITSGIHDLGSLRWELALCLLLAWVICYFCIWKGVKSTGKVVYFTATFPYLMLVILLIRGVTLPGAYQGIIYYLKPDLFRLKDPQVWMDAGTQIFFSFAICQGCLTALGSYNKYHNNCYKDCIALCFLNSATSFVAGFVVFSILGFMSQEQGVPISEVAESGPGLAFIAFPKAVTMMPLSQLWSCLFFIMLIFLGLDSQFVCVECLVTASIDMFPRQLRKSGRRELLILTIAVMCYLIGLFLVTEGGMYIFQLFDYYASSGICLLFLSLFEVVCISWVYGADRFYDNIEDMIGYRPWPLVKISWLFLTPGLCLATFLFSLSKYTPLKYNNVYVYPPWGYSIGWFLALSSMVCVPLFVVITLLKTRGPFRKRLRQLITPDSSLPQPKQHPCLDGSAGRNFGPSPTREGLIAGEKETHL
Description: (§1) CHO Flp-In and tsA201 cells were cultured at 37 °C in a humidified atmosphere of […] and 5% CO2. As previously described[38],[63], CHO Flp-In cells stably expressing the hGATs were cultured in Ham’s F12 Nutrient Mix supplemented with 10% FBS, 1% P/S and plasmocin (5 µg/mL) under the selection pressure of hygromycin B (200 µg/mL). DMEM with GlutaMAX-I supplemented with 10% FBS and 1% P/S was used as growth medium for the tsA201 cells, which were transfected with DNA constructs using PolyFect according to the manufacturer’s specifications (Qiagen, West Sussex, UK), but with half of the recommended reagent volumes.
(§2) Uptake assays were performed in PDL-coated white 96-well polystyrene cell culture microplates (PerkinElmer, Boston, MA, USA) as previously described[38],[63]. […] Assay buffer was HBSS supplemented with 20 mM HEPES, 1 mM CaCl2 and 1 mM MgCl2, pH 7.4. […] After termination, scintillation liquid (MicroScint-20, PerkinElmer) was added and the radioactivity measured in a TopCount NXT Microplate Scintillation Counter (PerkinElmer).
(§3) Data analysis and statistical evaluation were performed in GraphPad Prism 7.02 (GraphPad Software, San Diego, CA, USA). Concentration-uptake inhibition curves, generated from the radioligand-based uptake assays, were fitted by non-linear regression, using the equation for sigmoidal concentration–response with variable slope: Y = Bottom + (Top–Bottom)/(1 + 10^((logIC50 − X) × HillSlope)), where Y is the response, X is the logarithm of the concentration, Top and Bottom are the plateaus in same units as Y, logIC50 is the concentration giving a response halfway between Bottom and Top, and the HillSlope is the steepness of the curve. For the substrate concentration–response curves generated from the FMP assay, the same equation was used but with logEC50 instead for logIC50. Unless otherwise stated, data are presented as means ± S.E.M. of at least three independent pooled experiments performed in triplicates.

hGAT2 = molecular target: T2, hGAT2 (Homo sapiens, UniProt Q9NSD5); assay: [3H]GABA uptake inhibition at hGAT2 stably expressed in CHO Flp-In cells; conditions: 30 nM [3H]GABA, 3 min, CHO Flp-In cells stably expressing hGAT2
T2 construct: expressed in transfected cells
T2 sequence (Q9NSD5 1-602): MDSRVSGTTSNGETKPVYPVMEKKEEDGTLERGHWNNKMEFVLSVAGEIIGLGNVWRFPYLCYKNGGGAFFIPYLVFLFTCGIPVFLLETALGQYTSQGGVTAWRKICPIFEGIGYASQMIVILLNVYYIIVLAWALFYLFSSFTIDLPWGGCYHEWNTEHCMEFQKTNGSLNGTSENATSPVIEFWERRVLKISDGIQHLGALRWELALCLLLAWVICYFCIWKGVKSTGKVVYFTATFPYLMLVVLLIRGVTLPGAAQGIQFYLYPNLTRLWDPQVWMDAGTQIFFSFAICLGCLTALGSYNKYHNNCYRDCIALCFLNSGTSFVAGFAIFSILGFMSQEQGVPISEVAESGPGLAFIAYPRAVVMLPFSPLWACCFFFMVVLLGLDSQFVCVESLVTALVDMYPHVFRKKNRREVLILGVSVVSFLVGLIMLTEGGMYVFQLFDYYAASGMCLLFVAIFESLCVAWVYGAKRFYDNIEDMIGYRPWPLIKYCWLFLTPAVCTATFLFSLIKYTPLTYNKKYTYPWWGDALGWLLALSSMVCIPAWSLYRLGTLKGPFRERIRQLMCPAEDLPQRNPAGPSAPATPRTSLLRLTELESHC
Description: as §1, §2, §3

hGAT3 = molecular target: T3, hGAT3 (Homo sapiens, UniProt P48066); assay: [3H]GABA uptake inhibition at hGAT3 stably expressed in CHO Flp-In cells; conditions: 30 nM [3H]GABA, 3 min, CHO Flp-In cells stably expressing hGAT3
T3 construct: expressed in transfected cells
T3 sequence (P48066 1-632): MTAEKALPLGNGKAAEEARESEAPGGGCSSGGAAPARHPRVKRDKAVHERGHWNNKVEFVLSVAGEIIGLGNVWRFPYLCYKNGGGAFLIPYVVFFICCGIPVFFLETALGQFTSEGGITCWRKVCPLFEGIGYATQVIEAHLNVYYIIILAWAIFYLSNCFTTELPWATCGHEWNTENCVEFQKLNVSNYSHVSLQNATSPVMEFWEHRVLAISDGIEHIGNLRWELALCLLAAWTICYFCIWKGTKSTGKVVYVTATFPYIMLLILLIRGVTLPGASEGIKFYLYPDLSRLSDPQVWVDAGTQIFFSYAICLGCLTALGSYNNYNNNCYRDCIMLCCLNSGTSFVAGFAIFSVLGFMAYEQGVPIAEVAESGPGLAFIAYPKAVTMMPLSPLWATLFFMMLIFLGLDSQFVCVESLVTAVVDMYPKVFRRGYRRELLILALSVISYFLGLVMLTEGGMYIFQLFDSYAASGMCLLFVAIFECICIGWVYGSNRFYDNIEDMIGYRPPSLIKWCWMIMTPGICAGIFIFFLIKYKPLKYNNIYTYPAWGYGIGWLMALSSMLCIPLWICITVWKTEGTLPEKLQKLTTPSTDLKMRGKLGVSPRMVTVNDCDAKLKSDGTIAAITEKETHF
Description: as §1, §2, §3

hGAT1 = molecular target: T4, hGAT1 (Homo sapiens, UniProt P30531); assay: [3H]GABA uptake inhibition at hGAT1 stably expressed in CHO Flp-In cells; conditions: 30 nM [3H]GABA, 3 min, CHO Flp-In cells stably expressing hGAT1
T4 construct: expressed in transfected cells
T4 sequence (P30531 whole entry): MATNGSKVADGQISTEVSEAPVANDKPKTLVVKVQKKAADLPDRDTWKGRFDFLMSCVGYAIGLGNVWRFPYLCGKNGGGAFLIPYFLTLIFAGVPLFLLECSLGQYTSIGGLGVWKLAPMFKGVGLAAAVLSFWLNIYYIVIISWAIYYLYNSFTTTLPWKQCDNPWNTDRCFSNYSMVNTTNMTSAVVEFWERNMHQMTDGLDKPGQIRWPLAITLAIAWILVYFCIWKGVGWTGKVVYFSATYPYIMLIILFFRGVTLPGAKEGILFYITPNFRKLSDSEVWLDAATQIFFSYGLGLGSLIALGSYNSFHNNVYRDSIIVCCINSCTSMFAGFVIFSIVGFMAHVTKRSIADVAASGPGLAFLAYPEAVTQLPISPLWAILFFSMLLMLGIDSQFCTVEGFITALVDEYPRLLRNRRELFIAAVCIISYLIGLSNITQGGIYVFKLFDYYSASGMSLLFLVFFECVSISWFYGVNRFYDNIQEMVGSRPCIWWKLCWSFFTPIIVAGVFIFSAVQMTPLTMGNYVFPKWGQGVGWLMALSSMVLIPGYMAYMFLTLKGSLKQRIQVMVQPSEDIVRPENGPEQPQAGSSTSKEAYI
Description: as §1, §2, §3

hBGT1 [2] = molecular target: T1, hBGT1; assay: FLIPR Membrane Potential (FMP) assay at hBGT1 stably expressed in CHO Flp-In cells
Description: The fluorescence-based FMP assay was performed as previously described, for the functional characterization of the electrogenic transport of substrates via hBGT1. Briefly, CHO Flp-In cells stably expressing hBGT1 or hGAT1 were plated (~ 50,000 cells/well) into black PDL-coated 96-well plates with clear bottom (VWR, Radnor, PA, USA). The next day, the growth medium was removed, and cells were washed once with HBSS assay buffer and FMP Blue Dye (Molecular Devices, Crawley, UK), added, and incubated. Ligands were added via the NOVOStar plate reader (BMG Labtech GmbH, Offenburg, Germany), preheated to 37 °C, approximately 10 min before reading of the cell plate. The fluorescence signals were measured for 33.8 s upon ligand addition using an emission and excitation wavelength of […], respectively. Electrogenic transport of substrates via hBGT1 will lead to an influx of the negatively charged FMP Blue dye that will bind to intracellular proteins and lipids resulting in an increase in the fluorescence signal.
as §3

hBGT1 wt = molecular target: T5, hBGT1 wt (Homo sapiens, UniProt P48065); assay: [3H]GABA uptake inhibition at wt hBGT1 transiently expressed in tsA201 cells; conditions: 30 nM [3H]GABA, tsA201 cells transiently expressing wt hBGT1
T5 construct: expressed in transfected cells; host or cells: tsA201 cells, transient (PolyFect), pcDNA5/FRT vector
T5 sequence (P48065 1-614): T1 sequence (P48065 1-614)

[3] = read-out: pIC50 ± S.E.M. hBGT1 (converted)
[4] = read-out: pIC50 ± S.E.M. hGAT2 (converted)

Structure (SMILES)	IC50 (hGAT2; read-out: IC50 hGAT2) [µM]	IC50 (hGAT3; read-out: IC50 hGAT3) [mM]	IC50 (hBGT1 [1]; read-out: IC50 hBGT1) [µM]	IC50 (hGAT1; read-out: IC50 hGAT1) [mM]	other results
C[C@@H]1N=C(N)NC[C@@H]1C(=O)O (relative stereo) [l-15]	–	–	–	–	IC50 (hBGT1 [1]; [3]): 41.7 µM
C[C@@H]1N=C(N)NC[C@@H]1C(=O)O (single isomer, unassigned) [l-15b]	> 1000	> 1	442	> 1	IC50 (hBGT1 [1]; [3]): 417 µM; subtype-selectivity for hBGT1 over the other hGATs (hBGT1 [1]; CHO Flp-In cells): 2–3 times
NC1=NCC(C(=O)O)CN1CCCC(c1ccccc1)c1ccccc1 (stereo not shown) [compound 7]	> 1000	> 1	> 1000	> 1	–
Cc1ccsc1C(=CCCN1CC(C(=O)O)CN=C1N)c1sccc1C (stereo not shown) [compound 8]	–	–	–	–	IC50 (hBGT1 wt; read-out: IC50 BGT1 wt): 621 µM; IC50 (hBGT1 wt; read-out: pIC50 ± S.E.M. BGT1 wt (converted)): 631 µM
NC1=NCC(C(=O)O)=CN1Cc1ccccc1 [compound 9]	–	–	–	–	IC50 (hBGT1 wt; read-out: IC50 BGT1 wt): > 1000 µM
O=C(O)C1CN=C(NCCc2ccccc2)NC1 (stereo not shown) [compound 10]	> 1000	> 1	> 1000	0.439	IC50 (hGAT1; read-out: pIC50 ± S.E.M. hGAT1 (converted)): 0.427 mM
CC1=C(C(=O)O)CNC(N)=N1 [compound 12]	> 1000	> 1	> 1000	> 1	–
CC(C)C1N=C(N)NCC1C(=O)O (stereo not shown) [compound 17]	> 1000	> 1	> 1000	> 1	–
NC1=NC(CCc2ccccc2)C(C(=O)O)CN1 (stereo not drawn) [l-18]	> 1000	> 1	> 1000	> 1	–

More lines, main results first:

IC50 (hGAT2; read-out: IC50 hGAT2) [µM]	IC50 (hGAT3; read-out: IC50 hGAT3) [mM]	IC50 (hBGT1 [1]; read-out: IC50 hBGT1) [µM]	IC50 (hGAT1; read-out: IC50 hGAT1) [mM]	Structure (SMILES)	other results
> 1000	> 1	> 1000	> 1	NC1=N[C@@H](CCc2ccc(-c3ccccc3)cc2)[C@@H](C(=O)O)CN1 (relative stereo) [l-19]	–
> 1000	> 1	292	> 1	C[C@H]1N=C(N)NC[C@@H]1C(=O)O (single isomer, unassigned) [u-15a]	IC50 (hBGT1 [1]; [3]): 269 µM; subtype-selectivity for hBGT1 over the other hGATs (hBGT1 [1]; CHO Flp-In cells): 2–3 times
> 1000	> 1	85	> 1	C[C@H]1N=C(N)NC[C@@H]1C(=O)O (single isomer, unassigned) [u-15b]	IC50 (hBGT1 [1]; [3]): 77.6 µM; subtype-selectivity for hBGT1 over the other hGATs (hBGT1 [1]; CHO Flp-In cells): at least 12 times
382	0.396	50	1.04	NC1=NCC(C(=O)O)CN1Cc1ccc(-c2ccccc2)cc1 (stereo not shown) [compound 5]	IC50 (hGAT3; read-out: pIC50 ± S.E.M. hGAT3 (converted)): 0.38 mM; decrease of hBGT1 inhibitory potency compared to ATPCA (hBGT1 [1]; [3H]GABA uptake, CHO Flp-In cells): 20–65 fold; subtype-selectivity for hBGT1 over the other hGATs (hBGT1 [1]; CHO Flp-In cells): at least 7 times; substrate character at hBGT1 in FMP assay (hBGT1 [2]; concentration-dependent increase in fluorescence signal): substrates for hBGT1; Mean Rmax as % of GABA Rmax ± S.E.M. (hBGT1 [2]; hBGT1 stably expressed in CHO Flp-In cells, FMP assay): 73 ± 2.8 % of GABA Rmax; EC50 (hBGT1 [2]; hBGT1 stably expressed in CHO Flp-In cells, three independent experiments): 194 µM
> 1000	> 1	> 1000	> 1	NC1=NCC(C(=O)O)CN1CCC(c1ccccc1)c1ccccc1 (stereo not shown) [compound 6]	–
530	> 1	> 1000	> 1	CCCC1=C(C(=O)O)CNC(N)=N1 [compound 13]	IC50 (hGAT2; [4]): 501 µM
1010	> 1	> 1000	> 1	CC(C)C1=C(C(=O)O)CNC(N)=N1 [compound 14]	IC50 (hGAT2; [4]): 955 µM
601	> 1	> 1000	> 1	CCCC1N=C(N)NCC1C(=O)O (stereo not shown) [compound 16]	IC50 (hGAT2; [4]): 589 µM
